Source: patent US20150209426A1, “TREATMENT OF CANCER” (Boehringer Ingelheim International GmbH, priority 2014, published 2015)

What was measured:
MCF7aro cells = assay: Cell proliferation assay of adherently growing MCF7aro breast cancer cells (AlamarBlue cell viability); type: cell-based, human; details: 6 days of incubation, mean of three independent experiments, everolimus up to 50 nM, exemestane up to 200 nM, triple combination with fixed 10 nM IGF Ab 60833
Description: Three independent experiments were conducted to determine the anti-proliferative effect of IGF Ab 60833 in combination with everolimus and exemestane in MCF7aro breast cancer cells. Cell proliferation and viability following 6 days of incubation with test compounds was determined using an assay that monitors the reducing environment of the living cells in each assay well.
For cell proliferation assays and Western Blot analysis the cells were steroid-deprived for 72 h by cultivation in starvation medium (MEM alpha without phenol red, supplemented with 10% charcoal stripped FBS, 2 mM GlutaMAX and 1 mM sodium pyruvate). […]
The final concentration of the solvent DMSO in the test wells was 0.1%. Everolimus and exemestane were tested at 5 concentrations, each measured in duplicate wells, as single agents or in combination.
After 2 days of incubation with test compounds in a humidified incubator at 37° C. and 5% CO2, medium was changed to fresh assay medium and compounds were added again. […] Total fluorescence intensity of each well was then measured in a Wallac VICTOR Multilabel Counter using an excitation wavelength of 544 nm and measuring emission at 590 nm.
At the time of test compound addition, “time zero” (t=0) untreated cell plates were stained with AlamarBlue® Cell Viability Reagent. […] After incubation for 6 hours at 37° C. and 5% CO2, total fluorescence intensity was measured. […]

[1] = system: AKT and S6 phosphorylation in MCF7aro cells; assay: Western blot assessment of AKT and S6 phosphorylation status in MCF7aro cell lysates; type: cell-based, human; details: 24 hours, 100 nM IGF Ab 60833, 0.32 nM everolimus, versus vehicle (DMSO) control
Description: 1.8×10^6 MCF7aro cells were plated in 10 cm dishes in starvation medium (MEM alpha without phenol red, supplemented with 10% charcoal stripped FBS, 2 mM GlutaMAX and […]). After overnight incubation, medium was changed to assay medium (MEM alpha without phenol red, supplemented with 10% charcoal stripped FBS, 2 mM GlutaMAX, 1 mM sodium pyruvate and 1 nM androstenedione) and the cells were treated with 100 nM of IGF Ab 60833 or 0.32 nM of everolimus or a combination of antibody and mTORC1 inhibitor. As a control, cells were treated with vehicle (DMSO) only. At 24 h post treatment, the cells were lysed on ice with MSD Tris Lysis Buffer containing 20 mM Tris pH 7.5, 150 mM NaCl, 1 mM EDTA, 1 mM EGTA, 1% Triton X-100, completed with protease and phosphatase inhibitor cocktails. Prior to use, freshly prepared 2 mM PMSF was added to the buffer.
(§1) Total protein was isolated and protein concentration was quantified by Bradford protein assay according to the manufacturer's instructions. […]
The effect of IGF Ab 60833 and everolimus, as single agents and in combination, on the phosphorylation of AKT at serine 473 (pAKT S473) and threonine 308 (pAKT T308), and of S6 (pS6) at serine 235/236 was monitored by Western blot analysis of MCF7aro cell lysates prepared 24 hours post treatment.

[2] = system: cleaved PARP in MCF7aro cells; assay: Cleaved PARP (apoptosis) in MCF7aro cell lysates by Western blot and MSD Apoptosis Panel; type: cell-based, human; details: 72 h, 1 μM of each agent, versus vehicle-treated control
Description: 1.5×10^6 MCF7aro cells were plated in 10 cm dishes in starvation medium (MEM alpha without phenol red, supplemented with 10% charcoal stripped FBS, 2 mM GlutaMAX and 1 mM sodium pyruvate). After overnight incubation, medium was changed to assay medium (MEM alpha without phenol red, supplemented with 10% charcoal stripped FBS, 2 mM GlutaMAX, 1 mM sodium pyruvate and 1 nM androstenedione) and the cells were treated with vehicle (DMSO), or 1 μM of IGF Ab 60833, or 1 μM exemestane, or 1 μM everolimus, or a combination of exemestane and everolimus, or a combination of all three inhibitors. At 72 h post treatment, the cells were lysed on ice with MSD Tris Lysis Buffer containing 20 mM Tris pH 7.5, 150 mM NaCl, 1 mM EDTA, 1 mM EGTA, 1% Triton X-100, completed with protease and phosphatase inhibitor cocktails. Prior to use, freshly prepared 2 mM PMSF was added to the buffer.
as §1
Cells lysates were prepared according to the Meso Scale Discovery cell lysis protocol. 20 μg of clarified lysate was analyzed in duplicates with MSD Apoptosis Panel Whole Cell Lysate Kit, measuring cleaved PARP signals, according to the manufacturer's instructions. Plates were read on the SECTOR Imager 6000 plate reader.

[3] = system: advanced hormone receptor-positive, HER2-negative breast cancer; details: cited from earlier work
[4] = system: hormone refractory, hormone receptor-positive, HER2-negative metastatic breast cancer; details: hormone refractory HR+, HER2-negative metastatic breast cancer patients; cited from earlier work

SMILES | maximal mean CGI (cell growth inhibition) (MCF7aro cells) [%] | pAKT S473 and T308 levels by Western blot [1] | pS6 (S235/236) signal by Western blot [1] | levels of cleaved PARP (marker for apoptosis) [2] | median progression-free survival ([3]; by local investigator assessment) [months] | overall response rate ([3]; in vivo) [%] | time to progression (PFS) [4] [months]
CO[C@H]1C[C@@H]2CC[C@@H](C)[C@@](O)(O2)C(=O)C(=O)N2CCCC[C@H]2C(=O)O[C@H]([C@H](C)C[C@@H]2CC[C@@H](OCCO)[C@H](OC)C2)CC(=O)[C@H](C)/C=C(\C)[C@@H](O)[C@@H](OC)C(=O)[C@H](C)C[C@H](C)/C=C/C=C/C=C/1C [everolimus] | 47 | increased compared to the vehicle (DMSO)-treated control | reduced pS6 signal | comparable to or only marginally higher than the level in the vehicle-treated control |  |  | 
C=C1C[C@@H]2[C@H](CC[C@]3(C)C(=O)CC[C@@H]23)[C@@]2(C)C=CC(=O)C=C12 [exemestane, 6-Methylideneandrosta-1,4-diene-3,17-dione] | 60 |  |  | comparable to or only marginally higher than the level in the vehicle-treated control | 3.2 | 1.7 | 
CC/C(=C(\c1ccccc1)c1ccc(OCCN(C)C)cc1)c1ccccc1 [tamoxifen] |  |  |  |  |  |  | 4.5
